# From patent US20060058310A1, “Remedies for vertebral canal stenosis” (priority 2002, published 2006)
# Entries after “also recorded” stand apart in the source; their conditions may differ.
# System: rat of gait disturbance model by cauda equina compression
# Experiment: Walking ability (treadmill) in rat gait disturbance model by cauda equina compression
# Assay type: in vivo
# Details: spinal canal stenosis model, administered orally for 11 days after the operation, vs negative control (carboxymethylcellulose or toragacanth gum), Dunnett's test, FIG. 1 and FIG. 2
# Description: Improvement effect of this invented compound in a rat model of gait disturbance model by cauda equina compression:
# <Method of Making an Animal Model>
# A rat of gait disturbance model by cauda equina compression was made by the method of Takenobu et al. (J. Neurosci. Methods, 104(2), 191-198 (2002)). Namely, a rat was anesthetized by sodium pentobarbital, removed its dorsal hair and then was fixed its body in the prone position. After disinfection of the back with Chlorhexidine gluconate (5% Hibiten Liquid: Sumitomo Pharmaceuticals), the lumbar was incised along the midline to expose the spine. After excision of the fifth lumbar spinous process, silicon rubber 1×4×1.25 mm (height×length×width) were inserted into the fourth and the sixth lumbar spinal canals from small holes of vertebral arch which was made by mini-drill. […]
# The rats were put on the running belt, and adapted to the condition where the grid was sent an electric current (0.04 mA-4 mA) for three minutes or more. […] The distance between the point to walk and the point to give up walk, in other words, the point where it is impossible for them to walk even though the stimulation (sound, contact and electricity) to make them walk was given, was measured with the mileometer built into the equipment. […] The results obtained from the compounds- and negative control-groups were analyzed by the Dunnett's multiple comparison test (*P<0.05). […]
smiles,measurement,value
"O=C1C[C@@]2(C(=O)N1)C(=O)N(Cc1ccc(Br)cc1F)C(=O)c1cccn12 [Compound B, (R)-2-(4-bromo-2-fluorobenzyl)spiro[1,2,3,4-tetrahydropyrrolo[1,2-a]pyrazine-4,3′-pyrrolidine]-1,2′,3,5′-tetrone]",improvement of walking dysfunction (walking distance on treadmill),improved the pathology; also recorded: improved the walking dysfunction
